# Assay results as given in patent US9840509B2, “Heterocyclic compounds” (CADILA HEALTHCARE LIMITED, priority 2014, dated 2017).
# What was measured:
# CYP 2C9 = molecular target: T1, CYP 2C9 (Homo sapiens, UniProt P11712); test: CYP inhibition in human liver microsomes, 2C9; assay type: in vitro ADME; settings: pH 7.4, @ 10 μM concn
# T1 construct: from tissue; host or cells: human liver microsomes
# Protocol: (§1) CYP Inhibition Studies: CYP inhibition studies were performed with test compounds, at two concentrations ([…] and 10 μM), using human liver microsomes (Yao, M., Zhu, M., Sinz, M. W., Zhang, H., Humphreys, W. F., Rodrigues, A. D and Dai, R., Journal of Pharmaceutical and Biomedical Analysis, 2007, 44, 211-223; Walsky, R. L and Obach, R. S., Drug Metab. Dispos., 2004, 32, 647-660). Human liver microsomes were mixed with 100 mM phosphate buffer (pH 7.4) and probe substrate and warmed to […] in microcentrifuge tubes. Aliquots of this mixture (499 μL) were transferred to each pre-labeled microcentrifuge tubes, followed by addition of the 1 μL of inhibitors (test compound/CYP-specific positive control inhibitor) or control solvent (DMSO). Aliquots of this mixture (90 μL) were transferred to each pre-labeled microcentrifuge tubes in duplicate. Final solvent concentrations were 0.2% (v/v) or less. Incubations were commenced with the addition of 10 μL NADPH stock (assay concentration, 1 mM) to a final incubation volume of 100 μL and incubated in shaking water bath (at 37° C. and 100 rpm), for the period defined in Tables 1. Incubations were terminated by addition of 400 μL of termination solvent (CH3CN) containing internal standard. The terminated samples were vortex-mixed, centrifuged at 10000 rpm for 5 min and supernatant transferred into HPLC vials for LC-MS/MS analysis to monitor metabolites produced by marker CYP reactions. […] Animals
# CYP 2C8 = molecular target: T2, CYP 2C8 (Homo sapiens, UniProt P10632); test: CYP inhibition in human liver microsomes, 2C8; assay type: in vitro ADME; settings: pH 7.4, @ 10 μM concn
# T2 construct: from tissue; host or cells: human liver microsomes
# T2 sequence (P10632 1-490): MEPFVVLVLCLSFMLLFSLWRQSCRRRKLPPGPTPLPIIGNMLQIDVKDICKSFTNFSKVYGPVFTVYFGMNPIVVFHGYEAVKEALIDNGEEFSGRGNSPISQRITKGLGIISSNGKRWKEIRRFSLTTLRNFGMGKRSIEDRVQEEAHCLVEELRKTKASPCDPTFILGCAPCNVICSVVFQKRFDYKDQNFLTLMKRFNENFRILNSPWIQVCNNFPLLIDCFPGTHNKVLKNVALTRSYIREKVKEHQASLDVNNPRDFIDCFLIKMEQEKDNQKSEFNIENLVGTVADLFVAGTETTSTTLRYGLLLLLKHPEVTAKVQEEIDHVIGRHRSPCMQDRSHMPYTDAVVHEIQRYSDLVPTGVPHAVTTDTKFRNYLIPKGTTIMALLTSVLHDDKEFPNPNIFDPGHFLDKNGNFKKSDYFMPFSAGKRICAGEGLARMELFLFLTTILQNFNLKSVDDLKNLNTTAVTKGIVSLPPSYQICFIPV
# Protocol: as §1
# [1] = molecular target: T3, recombinant purified human BTK (Homo sapiens, UniProt Q06187); test: In vitro BTK kinase assay on ADP Glo platform; assay type: biochemical; settings: 2 hr room temperature, read-out: In-vitro BTK inhibitory activity: IC50
# T3 construct: purchased SignalChem, USA
# T3 sequence (Q06187 whole entry): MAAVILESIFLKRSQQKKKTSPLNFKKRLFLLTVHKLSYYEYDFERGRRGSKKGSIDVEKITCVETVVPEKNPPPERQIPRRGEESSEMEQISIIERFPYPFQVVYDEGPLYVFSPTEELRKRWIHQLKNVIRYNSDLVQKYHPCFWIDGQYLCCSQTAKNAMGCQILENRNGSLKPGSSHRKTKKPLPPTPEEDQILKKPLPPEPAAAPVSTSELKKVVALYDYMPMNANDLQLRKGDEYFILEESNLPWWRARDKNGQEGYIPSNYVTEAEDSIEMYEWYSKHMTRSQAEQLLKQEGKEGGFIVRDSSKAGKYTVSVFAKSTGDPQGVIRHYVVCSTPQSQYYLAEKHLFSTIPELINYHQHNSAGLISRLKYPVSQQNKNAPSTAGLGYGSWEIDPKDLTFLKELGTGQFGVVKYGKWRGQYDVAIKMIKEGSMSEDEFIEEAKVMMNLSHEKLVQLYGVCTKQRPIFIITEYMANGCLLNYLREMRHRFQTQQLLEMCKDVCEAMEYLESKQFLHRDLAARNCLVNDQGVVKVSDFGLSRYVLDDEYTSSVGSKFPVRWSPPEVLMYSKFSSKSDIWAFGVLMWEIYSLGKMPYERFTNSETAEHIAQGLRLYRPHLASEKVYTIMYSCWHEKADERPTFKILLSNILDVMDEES
# Protocol: Testing of Compounds of the Invention Biological Studies: In vitro BTK Inhibitory Activity Assay:
# In vitro BTK inhibitory activity of test compounds were screened using BTK kinase assay on ADP Glo platform (Li, H., Totoritis, R. D., Lor, L. A., Schwartz, B., Caprioli, P., Jurewicz, A. J and Zhang, G., Assay Drug Dev. Technol., 2009, 7(6), 598-605). Briefly, fixed amount of recombinant purified human BTK (3 ng/reaction from SignalChem, USA) were incubated with increasing concentration of test compounds, in 1× kinase reaction buffer (40 mM Tris-Cl, pH7.5, 20 mM MgCl2, 2 mM MnCl2, 0.1 mg/ml BSA and 50 μM DTT). Enzymatic reaction was initiated by adding a substrate cocktail containing 50 µM of ATP (final concentration) and […] of polyGln4Tyr1 (Signal Chem) in total 25 μl of reaction, in round bottom white 96 well plate. The reaction mixture was incubated at room temperature for 2 hr. After 2 hr of incubation, 10 μl of the reaction mix was mixed with […] of ADP Glo reagent, in another round bottom white 96 well plate and incubated at room temperature for 40 min. This was followed by addition of kinase detection reagent (20 μl per reaction) and incubation at room temperature for 30 min. Finally, plate was read for luminescence at an integration time of 500 millisecond per well. Data were plotted taking Enzyme with no inhibitor set as the 100% kinase activity and for dose response curve, % Kinase activity was plotted against conc on Log scale and IC50 was determined by non linear curve fitting method using GraphPad Prism software 6. The in vitro BTK inhibitory activity (IC50) for representative compounds are listed in […]
# CYP 2D6 = molecular target: T4, CYP 2D6 (Homo sapiens, UniProt P10635); test: CYP inhibition in human liver microsomes, 2D6; assay type: in vitro ADME; settings: pH 7.4, @ 10 μM concn
# T4 construct: from tissue; host or cells: human liver microsomes
# T4 sequence (P10635 whole entry): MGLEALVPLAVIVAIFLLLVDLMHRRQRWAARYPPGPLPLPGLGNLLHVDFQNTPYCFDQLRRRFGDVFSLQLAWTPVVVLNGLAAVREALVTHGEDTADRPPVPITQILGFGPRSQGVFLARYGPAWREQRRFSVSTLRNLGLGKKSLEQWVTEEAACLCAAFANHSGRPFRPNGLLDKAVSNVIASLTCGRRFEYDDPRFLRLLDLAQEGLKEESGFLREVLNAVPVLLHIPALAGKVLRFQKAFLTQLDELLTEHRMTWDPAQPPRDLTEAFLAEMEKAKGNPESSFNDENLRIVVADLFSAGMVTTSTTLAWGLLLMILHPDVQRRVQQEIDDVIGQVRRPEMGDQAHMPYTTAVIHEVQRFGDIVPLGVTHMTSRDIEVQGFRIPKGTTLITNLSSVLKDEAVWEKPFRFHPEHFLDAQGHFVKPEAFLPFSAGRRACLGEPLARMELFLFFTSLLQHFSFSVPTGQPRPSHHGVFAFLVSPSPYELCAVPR
# Protocol: as §1
# CYP 2C19 = molecular target: T5, CYP 2C19 (Homo sapiens, UniProt P33261); test: CYP inhibition in human liver microsomes, 2C19; assay type: in vitro ADME; settings: pH 7.4, @ 10 μM concn
# T5 construct: from tissue; host or cells: human liver microsomes
# T5 sequence (P33261 whole entry): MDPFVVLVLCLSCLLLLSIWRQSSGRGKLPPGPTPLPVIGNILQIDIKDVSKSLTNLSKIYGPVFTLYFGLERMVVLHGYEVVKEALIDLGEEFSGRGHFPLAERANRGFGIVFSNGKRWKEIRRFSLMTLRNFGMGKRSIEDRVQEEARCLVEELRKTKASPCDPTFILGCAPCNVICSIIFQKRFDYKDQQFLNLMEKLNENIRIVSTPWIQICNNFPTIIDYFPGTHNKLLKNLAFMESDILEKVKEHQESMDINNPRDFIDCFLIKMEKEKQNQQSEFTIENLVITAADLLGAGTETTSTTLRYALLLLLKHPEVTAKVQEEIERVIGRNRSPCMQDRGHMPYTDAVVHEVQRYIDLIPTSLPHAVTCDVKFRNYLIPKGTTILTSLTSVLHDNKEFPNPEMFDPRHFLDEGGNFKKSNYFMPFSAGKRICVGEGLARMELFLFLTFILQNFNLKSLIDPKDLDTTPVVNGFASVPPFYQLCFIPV
# Protocol: as §1
# CYP 1A2 = molecular target: T6, CYP 1A2 (Homo sapiens, UniProt P05177); test: CYP inhibition in human liver microsomes, 1A2; assay type: in vitro ADME; settings: pH 7.4, @ 10 μM concn
# T6 construct: from tissue; host or cells: human liver microsomes
# T6 sequence (P05177 1-516): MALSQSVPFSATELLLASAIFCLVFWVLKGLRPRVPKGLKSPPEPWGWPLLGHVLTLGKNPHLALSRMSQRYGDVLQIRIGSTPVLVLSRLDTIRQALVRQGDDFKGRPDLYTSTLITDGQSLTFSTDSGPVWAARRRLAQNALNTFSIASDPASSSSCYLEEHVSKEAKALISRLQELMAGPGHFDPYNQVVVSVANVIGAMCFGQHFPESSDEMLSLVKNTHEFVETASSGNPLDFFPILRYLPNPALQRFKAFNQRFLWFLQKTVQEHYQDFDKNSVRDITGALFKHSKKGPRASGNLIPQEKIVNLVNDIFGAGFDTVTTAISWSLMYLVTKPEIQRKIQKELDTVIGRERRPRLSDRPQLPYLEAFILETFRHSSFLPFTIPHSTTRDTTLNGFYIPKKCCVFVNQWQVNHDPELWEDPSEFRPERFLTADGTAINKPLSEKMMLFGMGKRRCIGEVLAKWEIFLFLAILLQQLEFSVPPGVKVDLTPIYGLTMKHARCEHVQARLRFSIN
# Protocol: as §1
# CYP 3A4 = molecular target: T7, CYP 3A4 (Homo sapiens, UniProt P08684); test: CYP inhibition in human liver microsomes, 3A4; assay type: in vitro ADME; settings: pH 7.4, @ 10 μM concn
# T7 construct: from tissue; host or cells: human liver microsomes
# T7 sequence (P08684 whole entry): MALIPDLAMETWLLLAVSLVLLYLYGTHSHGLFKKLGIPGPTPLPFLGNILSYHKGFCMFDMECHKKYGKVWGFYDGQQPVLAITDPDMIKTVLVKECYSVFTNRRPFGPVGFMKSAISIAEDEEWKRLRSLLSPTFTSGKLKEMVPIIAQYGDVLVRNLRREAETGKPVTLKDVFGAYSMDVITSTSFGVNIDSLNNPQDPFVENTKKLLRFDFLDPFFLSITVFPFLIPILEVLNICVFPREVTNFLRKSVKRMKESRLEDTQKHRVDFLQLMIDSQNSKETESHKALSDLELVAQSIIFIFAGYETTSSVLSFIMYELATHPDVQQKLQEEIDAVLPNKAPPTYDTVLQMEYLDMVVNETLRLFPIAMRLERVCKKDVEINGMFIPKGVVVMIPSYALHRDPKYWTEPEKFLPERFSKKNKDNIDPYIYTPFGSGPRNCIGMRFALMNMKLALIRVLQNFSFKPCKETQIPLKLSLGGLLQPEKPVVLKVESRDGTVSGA
# Protocol: as §1
# T1 sequence (P11712 whole entry): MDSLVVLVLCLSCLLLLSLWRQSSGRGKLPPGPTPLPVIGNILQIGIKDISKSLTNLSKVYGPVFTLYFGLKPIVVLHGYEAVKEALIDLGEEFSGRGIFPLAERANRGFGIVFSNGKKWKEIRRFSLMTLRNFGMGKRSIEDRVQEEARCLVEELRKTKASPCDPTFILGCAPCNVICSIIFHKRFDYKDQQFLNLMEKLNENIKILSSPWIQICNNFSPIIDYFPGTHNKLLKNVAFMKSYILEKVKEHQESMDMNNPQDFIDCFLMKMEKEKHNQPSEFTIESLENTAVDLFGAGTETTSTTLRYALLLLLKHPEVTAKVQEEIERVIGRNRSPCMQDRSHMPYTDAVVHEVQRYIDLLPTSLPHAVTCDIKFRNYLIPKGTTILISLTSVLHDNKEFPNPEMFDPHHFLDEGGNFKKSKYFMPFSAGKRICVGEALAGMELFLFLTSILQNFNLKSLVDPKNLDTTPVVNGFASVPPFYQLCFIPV
Structure (SMILES),inhibition at 10 μM (CYP 2C9) [%],inhibition at 10 μM (CYP 2C8) [%],IC50 [1] [nM],inhibition at 10 μM (CYP 2D6) [%],inhibition at 10 μM (CYP 2C19) [%],inhibition at 10 μM (CYP 1A2) [%],inhibition at 10 μM (CYP 3A4) [%]
"C=CC(=O)N1CC2CC(n3nc(-c4ccc(C(=O)Nc5cc(C)ccn5)cc4)c4c(N)ncnc43)CC2C1 (centres unmarked) [Compound 30, 4-(1-(2-acryloyloctahydrocyclopenta[c]pyrrol-5-yl)-4-amino-1H-pyrazolo[3,4-d]pyrimidin-3-yl)-N-(4-methylpyridin-2-yl)benzamide]",< 50,< 50,6,< 50,< 50,< 50,< 50
"C=CC(=O)N1CC2CC(n3cc(-c4ccc(Oc5ccccc5)cc4)c4c(N)ncnc43)CC2C1 (centres unmarked) [Compound 31, 1-(5-(4-amino-5-(4-phenoxyphenyl)-7H-pyrrolo[2,3-d]pyrimidin-7-yl)hexahydrocyclopenta[c]pyrrol-2(1H)-yl)prop-2-en-1-one]",< 50,< 50,0.6,< 50,< 50,< 50,< 50
"C#CC(=O)N1CC2CC(n3nc(-c4ccc(Oc5ccccc5)cc4)c4c(N)ncnc43)CC2C1 (centres unmarked) [Compound 11, 1-(5-(4-amino-3-(4-phenoxyphenyl)-1H-pyrazolo[3,4-d]pyrimidin-1-yl)hexahydrocyclopenta[c]pyrrol-2(1H)-yl)prop-2-yn-1-one]",< 50,< 50,13,< 50,< 50,< 50,< 50
"C=CC(=O)N1CC2CC(n3nc(-c4ccc(Oc5ccccc5)c(OC)c4)c4c(N)ncnc43)CC2C1 (centres unmarked) [Compound 12, 1-(5-(4-amino-3-(3-methoxy-4-phenoxyphenyl)-1H-pyrazolo[3,4-d]pyrimidin-1-yl)hexahydrocyclopenta[c]pyrrol-2(1H)-yl)prop-2-en-1-one]",> 50,> 50,37,< 50,< 50,< 50,> 50
"C=CC(=O)N1CC2CC(n3nc(-c4ccc5ncsc5c4)c4c(N)ncnc43)CC2C1 (centres unmarked) [Compound 2, 1-(5-(4-amino-3-(benzo[d]thiazol-6-yl)-1H-pyrazolo[3,4-d]pyrimidin-1-yl)hexahydrocyclopenta[c]pyrrol-2(1H)-yl)prop-2-en-1-one]",< 50,< 50,1.1,< 50,< 50,< 50,< 50
"C=CC(=O)N1CC2CC(n3nc(-c4ccc(C(=O)Nc5cc(C)ccn5)c(OC)c4)c4c(N)ncnc43)CC2C1 (centres unmarked) [Compound 29, 4-(1-(2-acryloyloctahydrocyclopenta[c]pyrrol-5-yl)-4-amino-1H-pyrazolo[3,4-d]pyrimidin-3-yl)-2-methoxy-N-(4-methylpyridin-2-yl)benzamide]",< 50,< 50,1.2,< 50,< 50,< 50,< 50
"C=CC(=O)N1CC2CC(n3nc(-c4ccc5nc(OC)sc5c4)c4c(N)ncnc43)CC2C1 (centres unmarked) [Compound 10, 1-(5-(4-amino-3-(2-methoxybenzo[d]thiazol-6-yl)-1H-pyrazolo[3,4-d]pyrimidin-1-yl)hexahydrocyclopenta[c]pyrrol-2(1H)-yl)prop-2-en-1-one]",< 50,> 50,25,> 50,< 50,< 50,> 50

# Continued, values first:
inhibition at 10 μM (CYP 2C9) [%],inhibition at 10 μM (CYP 2C8) [%],IC50 [1] [nM],inhibition at 10 μM (CYP 2D6) [%],inhibition at 10 μM (CYP 2C19) [%],inhibition at 10 μM (CYP 1A2) [%],inhibition at 10 μM (CYP 3A4) [%],Structure (SMILES)
< 50,< 50,1.5,< 50,< 50,< 50,< 50,"C=CS(=O)(=O)N1CC2CC(n3c(=O)n(-c4ccc(Oc5ccccc5)cc4)c4c(N)ncnc43)CC2C1 (centres unmarked) [Compound 33, 6-amino-7-(4-phenoxyphenyl)-9-(2-(vinylsulfonyl)octahydrocyclopenta[c]pyrrol-5-yl)-7H-purin-8(9H)-one]"
< 50,< 50,19,> 50,< 50,< 50,> 50,"CO/C(=N\c1cc(C)ccn1)c1ccc(-c2nn(C3CC4CN(C(=O)/C=C/CN(C)C)CC4C3)c3ncnc(N)c23)cc1 (centres unmarked) [Compound 50, (Z)-methyl 4-(4-amino-1-(2-((E)-4-(dimethylamino)but-2-enoyl)octahydrocyclopenta[c]pyrrol-5-yl)-1H-pyrazolo[3,4-d]pyrimidin-3-yl)-N-(4-methylpyridin-2-yl) benzimidate]"
< 50,< 50,1.4,< 50,< 50,< 50,< 50,"C=CC(=O)N1CC2CC(n3nc(-c4ccc(-c5nnc(-c6ccccn6)s5)cc4)c4c(N)ncnc43)CC2C1 (centres unmarked) [Compound 39, 1-(5-(4-amino-3-(4-(5-(pyridin-2-yl)-1,3,4-thiadiazol-2-yl)phenyl)-1H-pyrazolo [3,4-d]pyrimidin-1-yl)hexahydrocyclopenta[c]pyrrol-2(1H)-yl)prop-2-en-1-one]"
–,–,50,–,–,–,–,"CN(C)C/C=C/C(=O)N1CC2CC(n3nc(-c4ccc(Oc5ccccc5)cc4)c4c(N)ncnc43)CC2C1 (centres unmarked) [Compound 48, (E)-1-(5-(4-amino-3-(4-phenoxyphenyl)-1H-pyrazolo[3,4-d]pyrimidin-1-yl)hexahydrocyclopenta[c]pyrrol-2(1H)-yl)-4-(dimethylamino)but-2-en-1-one]"
